Data reported in US11723867B2, “Method for preparing pharmaceutical composition and pharmaceutical composition” (UPM-Kymmene Corporation, priority 2019, dated 2023).
Converted amounts (≈) assume the structure as drawn. Like-named read-outs stand apart in the source and are kept apart here.

How the values were obtained:
[1] = In vitro dissolution rate of the AZI (2015 Chinese pharmacopoeia, deionized water, 37° C., UV 482 nm); format: physicochemical; details: at 120 min, 100 rpm
Protocol: The original AZI powder was dissolved in anhydrous ethanol to form a solution with a concentration of 2 mg/ml under ultrasonic dispersion at room temperature. Subsequently, hydrochloric acid (0.1 M) was added into the AZI solution to form a series of AZI solution with different concentrations (16, 32, 48, 64, 80, 96 μg/ml). Then, 5 ml of each AZI sample and 5 ml of sulfuric acid (73.5%) were added into a test tube and mixed, after that the resultant mixture was kept for reaction for 30 min at the room temperature. Finally, UV absorption was measured at a wavelength of 482 nm to determine the concentration of the AZI solution, and a standard AZI curve can be plotted.
The dissolution rate was determined according to the method of 2015 Chinese pharmacopoeia (XC II). Firstly, 2 mg of AZI was placed in 100 ml of deionized water, and stirred at 100 rpm and 37° C. […]
Then, 2 ml sulfuric acid (73.5%) and 2 ml of the resultant filtrate were added to a test tube to form a mixture, and the mixture was kept for 30 min. Finally, UV absorption was measured at a wavelength of 482 nm to determine the AZI concentration. The dissolution rate of AZI was calculated using Eq. 2: Dissolution rate (%)=(Cn×V2+C1×V1+C2×V1+ . . . +Cn-1×V1)×100%/m (2) […]

[2] = cited from earlier work; for water solubility: atazenavir: as a free base
[3] = free base; preclinical animal models; cited from earlier work

## CC[C@H]1OC(=O)[C@H](C)[C@@H](O[C@H]2C[C@@](C)(OC)[C@@H](O)[C@H](C)O2)[C@H](C)[C@@H](O[C@@H]2O[C@H](C)C[C@H](N(C)C)[C@H]2O)[C@](C)(O)C[C@@H](C)CN(C)[C@H](C)[C@@H](O)[C@]1(C)O [original AZI, Azithromycin]
[1]
  dissolution rate of AZI: 1.31%

## CCOc1cc(CC(=O)N[C@@H](CC(C)C)c2ccccc2N2CCCCC2)ccc1C(=O)O [repaglinide]
[2]
  water solubility: 37 µg/mL (≈ 81.8 µM)

## CC(C(=O)O)c1ccc2c(c1)[nH]c1ccc(Cl)cc12 (stereo not drawn) [carprofen]
[2]
  solubility in water: 3.79 µg/mL (≈ 13.8 µM)
[2]; value in brackets
  solubility in water: 3.79 µg/mL (≈ 13.8 µM)

## COC(=O)N[C@H](C(=O)N[C@@H](Cc1ccccc1)[C@@H](O)CN(Cc1ccc(-c2ccccn2)cc1)NC(=O)[C@@H](NC(=O)OC)C(C)(C)C)C(C)(C)C [atazenavir]
[3]
  oral bioavailability: poor oral bioavailability
[2]
  water solubility: < 1 µg/mL
